Test results as given in patent US11109607B2, “Oil-based compositions for enhancing oral health and general wellness in humans” (priority 2013, dated 2021).

How the values were obtained:
[1] = test system: Staphylococcus aureus (ATCC#14154); assay: Micro-broth dilution susceptibility testing (MIC/MBC); format: cell-based; conditions: for effect against Staphylococcus aureus (in words): ATCC#14154, grown in broth over 48 hours
Method: (§1) A micro-broth dilution technique was used to determine the susceptibility of the strains of Staphylococcus aureus. Susceptibility was expressed as minimum inhibitory (MIC) and/or minimum bactericidal (MBC) concentration.
(§2) Various essential oils, carvacrol, and monolaurin were tested alone or in combination for the treatment of Staphylococcus aureus infection. Twelve essential oils were tested in the study: oregano oil, olive oil (the diluent), pumpkin oil, fenugreek oil, myrtle oil, allspice oil, sage oil, lavender oil, bay leaf oil, cumin oil, cinnamon oil, and cassia oil.
(§3) The stock solutions of oregano oil, other essential oils, olive oil, and carvacrol were dissolved in 50% ethanol-Tween 80 solvents. Antibiotics were dissolved in 50% ethanol and used as positive controls. Solvent controls (addition of carrier without essential oil and monolaurin) were also included for reference in addition to regular controls.
(§4) The Sabouraud's glucose (S.g.) broth containing varying amounts (logarithmic, serially and 2-fold diluted) of oregano oil, other essential oils, carvacrol, monolaurin and various controls were inoculated with actively dividing Staphylococcus aureus cells. The cultures were incubated for about 24 hours and about 48 hours at a temperature of about 30° C. on a metabolic rotary shaker (220 rev/min), and the growth was monitored both visually and colorimetrically (at a wavelength of about […]). The minimum inhibitory concentration (MIC) was defined as the lowest concentration required to arrest the growth of the bacteria at the end of 24 hour of incubation. Minimum bactericidal concentration (MBC) was determined by sub-culturing a 0.01 ml aliquot of the medium drawn from the culture tubes after 48 hours on S.g. agar plates and incubated further for bacterial growth. The plates were scored for growth of the bacteria colonies. The lowest concentration of the antimicrobial agent causing negative growth (fewer than three colonies) was considered as MBC. In every case, the MIC and MBC were virtually the same.
A micro dilution study on Staphylococcus aureus (ATCC#14154) grown in broth over 48 hours was performed to determine the comparative effects of various antibiotics and essential oils against Staphylococcus aureus infection at the selected concentrations.

[2] = test system: Staphylococcus aureus (ATCC#14775); assay: as above; format: cell-based; conditions: for killing of Staphylococcus aureus in vitro (summary): summary statement
Method: as §1, §2, §3, §4
The micro dilution study was performed with another strain of Staphylococcus aureus (ATCC#14775). Although the results from the two strains (ATCC#14775 and ATCC#14154) were generally similar, there were some minor differences. […] Oregano oil provided efficacy against the ATCC#14775 strain infections at the concentration as low as 0.25 mg oregano oil. Carvacrol provided efficacy against the ATCC#14775 strain infections at a phenol content equivalent to that in 0.5 mg oregano oil.
The in vitro experiment on Staphylococcus aureus (ATCC#14775) was performed to investigate the efficacy of using monolaurin alone, using monolaurin in combination with oregano oil, or using oregano oil alone.

[3] = test system: Staphylococcus aureus (ATCC#14775); assay: Murine systemic bacteremia model, 30-day survival; format: in vivo, mice; conditions: for in vivo effect on survival (in words): mice infected with 5xLD50, daily gavage 30 days; for mice surviving for 30 days (survivors/group): second study, groups of eight, 3.2 mg of each agent by gavage, vancomycin 400 μg i.p.; for mice surviving thirty days (survivors/total): summary across the in vivo studies
Method: Female BALB/c mice (about 15 grams to 20 grams in weight) were obtained from Taconic Farms (Germantown, N.Y.). The mice were maintained in a controlled environment at about 24° C. with a 12-hour light and 12-hour dark cycle and were acclimatized in the animal facility for about 3-5 days before testing. The mice were housed in groups of five, fed commercial rodent pellets, and given water ad libitum throughout the experiments. The Animal Welfare Board at Georgetown University Medical Center approved the protocol for the entire investigation.
In two separate experiments, groups of mice (6 and 8 respectively) infected with Staphylococcus aureus (5×LD50) were gavaged daily with oregano oil, carvacrol, monolaurin or combined oregano oil-monolaurin in 0.2 ml of olive oil for 30 days. The amount of bacterial agents administered was calculated based on the body weight of the mice. Control mice received daily gavages of either olive oil alone (negative control) or olive oil orally plus vancomycin (400 mcg) i.p. (positive control).
In the first in vivo experiment, the daily dose of oregano oil was either 2.0 μl (1.6 mg) or 4.0 μl (3.2 mg). […] In the second in vivo study, the daily dose of oregano oil was the same as the higher dose used before, i.e., 4.0 μl (3.2 mg). Monolaurin was given at the same dose; and when both agents were combined, the same individual doses were used, i.e., 3.2 mg of each. Both experiments were terminated at the end of 30 days. The body weight, the disease status, and the overall health of the mice during the experiments were recorded. The pathological status of the mice was determined by visual examination of the internal organs after their death or sacrifice at the completion of the experiment. Culturing aliquots of kidney homogenates on S.g. agar plates were tested for the renal burden of Staphylococcus aureus.
Furthermore, the in vivo therapeutic effects of the natural edible oregano oil and one of its major constituents, carvacrol, were examined in a murine systemic bacteremia model. […] Groups of six mice infected with Staphylococcus aureus (ATCC#14775) (5×LD50) were gavaged with varying amounts of oregano oil (2.0 μl 1.6 mg; and 4.0 μl 3.2 mg) or injected i.p. with vancomycin (400 μg) daily for 30 days. […] Fifty percent of the mice (3/6) receiving oregano oil (3.2 mg) survived over the thirty days, while only one of six receiving 1.6 mg oregano oil survived for 30 days. Also, 50% of those receiving vancomycin (400 μg) survived for 30 days, while all in the control group died within a three-day period. […] In contrast, numerous abscesses were noted and renal cultures were positive in all dying mice.
In a separate in vivo study, the effects of using monolaurin, either alone and in combination with oregano oil, were investigated and compared to the effects of oregano oil alone. Groups of eight mice were infected with five times the LD50 (5×LD50) of Staphylococcus aureus (A TIC #14775). Fifty percent of the mice (4/8) injected daily with vancomycin (400 μg i.p.) survived for the thirty days of study in contrast to the control group where all eight mice died within a week's time. In the three test groups, 3/8 survived for 30 days in the oregano oil group (3.2 mg), 4/8 survived in the monolaurin group (3.2 mg), and 5/8 survived in the group receiving the combination of oregano oil (3.2 mg) and monolaurin (3.2 mg). No abscesses were seen on inspection, and no bacterial growth was found in the kidney tissue of the 30-day survivors.

Compound | effect against Staphylococcus aureus (in words) [1] | killing of Staphylococcus aureus in vitro (summary) [2] | in vivo effect on survival (in words) [3] | mice surviving for 30 days (survivors/group) [3] | mice surviving thirty days (survivors/total) [3] | also measured
[H]/N=C(/N)N[C@H]1[C@H](O)[C@@H](O)[C@H](O[C@@H]2O[C@@H](C)[C@](O)(C=O)[C@H]2O[C@@H]2O[C@@H](CO)[C@H](O)[C@@H](O)[C@@H]2NC)[C@@H](N/C(N)=N\[H])[C@@H]1O [Streptomycin, streptomycin] | did not completely kill the bacteria |  |  |  |  | 
Cc1ccc(C(C)C)cc1O [carvacrol] |  | killed Staphylococcus aureus effectively in vitro | prolonged survival |  |  | effective concentration, as comparable dose of oregano oil (phenol content) ([1]; ATCC#14154, carvacrol expressed as oregano oil equivalent): 0.5 mg; phenol content needed for the same efficacy as oregano oil ([1]; relative to one oregano oil dosage, strain not specified): twice the phenol content; effective phenol content, as equivalent amount of oregano oil ([2]; ATCC#14775, carvacrol expressed as oregano oil equivalent): 0.5 mg; survival time (none survived beyond) ([3]; first experiment, twelve mice, two doses equivalent to phenol content in 1.6 mg and 3.2 mg oregano oil): ≤ 21 days; renal culture after death ([3]; first in vivo study, carvacrol at phenol-equivalent doses): Staphylococcus aureus was grown out of their kidneys; in vivo effect on survival (in words) ([3]; listed as Carvacrol): delayed death but could not cure the mice
CCCCCCCCCCCC(=O)OCC(O)CO (stereo not shown) [monolaurin, glycerol monolaurate] |  | killed Staphylococcus aureus effectively in vitro | protective effect | 4/8 | 4/8 | growth after two days of incubation ([2]; ATCC#14775, 0.125 mg of each agent): A few Staphylococcus aureus (ATCC#14775) colonies grew
CN[C@H](CC(C)C)C(=O)N[C@H]1C(=O)N[C@@H](CC(N)=O)C(=O)N[C@H]2C(=O)N[C@H]3C(=O)N[C@H](C(=O)N[C@H](C(=O)O)c4cc(O)cc(O)c4-c4cc3ccc4O)[C@H](O)c3ccc(c(Cl)c3)Oc3cc2cc(c3O[C@@H]2O[C@H](CO)[C@@H](O)[C@H](O)[C@H]2O[C@H]2C[C@](C)(N)[C@H](O)[C@H](C)O2)Oc2ccc(cc2Cl)[C@H]1O [vancomycin] | completely destroyed the bacteria |  |  | 4/8 | 7/14 | mice surviving for 30 days ([3]; first experiment, groups of six, 400 μg i.p. daily): 50%
penicillin | essentially showed no effect |  |  |  |  | 
